Laboratory results: PMC5693942 (Scientific Reports, 2017)
“And” between values parts separate entries of the source, which are not always exact repeats. Identical values can stand only once. “Also recorded” adds a separate entry of the source.

Tests used:
[1] = Activated sludge simulating microcosms (degradation of FL, formation of NFL); type: physicochemical; settings: for transformation / removal: 100 µg L^−1 microcosm, 24 h
Experimental: Activated sludge microcosm experiments were conducted in the dark and aerobic conditions. Three microcosm bioreactors were investigated in duplicate. They were filled with 2 L of fresh activated sludge collected from a local wastewater treatment plant. […] Dark conditions were simulated by covering up the flask with foil. Aerobic conditions were obtained using air from BOC air cylinder and a thorough mixing was maintained using magnetic stirrers. The experiment was 24 hours long. […] Collected samples were subsequently frozen until their analysis to prevent degradation of compounds.
The compounds studied are characterized as having low volatility and therefore volatilization was not considered as a potential removal pathway in studied microcosms. Photodegradation was also not considered (not relevant) under tested activated sludge conditions. Therefore the two important degradation mechanisms to consider were biodegradation and sorption to sludge. […] However, in this study, sorption equilibrium was assumed and therefore sorption could be considered negligible. This is because sorption is assumed to be fast when compared to biological degradation.
Several reports utilized pseudo-first-order kinetics for degradation of micropollutants in activated sludge reactors[48]–[50]. […] Pseudo-first order biodegradation rate k1 [L g^−1h^−1]

P. promelas = settings: ref [34]; cited from earlier work
[2] = River water simulating microcosms (degradation of FL); settings: river water, 1 µg L^−1 racemic FL, 16 days
Daphnia magna = Daphnia magna acute 48 h immobilization assay (Daphtoxkit); type: in vivo; settings: 48 h
Experimental: Six concentration levels (5 concentrations plus control, four replicate beakers for each concentrations, five individual for each beaker) were tested. […] Each experiment was repeated in triplicate.

Tetrahymena thermophila = test: microbe, parasite or virus in culture; type: cell-based
Experimental: The tests were performed in accordance with the protocols provided by the manufacturer. […] The tests were carried out in disposable spectrophotometric cells of 1 cm path-length, to enable the measurement of the optical density (OD) at 440 nm. […] This change in OD over the time period is used to quantify the degree of inhibition and subsequent calculation of the EC50. Each concentration was repeated in duplicate.

D. magna = settings: ref [34]; cited from earlier work
[3] = 100 µg L^−1, pseudo-first order

Compound	kbiol ([1]; 100 µg L^−1) [LgSS ^−1h^−1]	t1/2biol ([1]; 100 µg L^−1)	k1 [1, 3] [h⁻¹]	transformation / removal [1] [%]	LOEC7d -feeding (P. promelas) [mg/L]	LOEC7d -growth (P. promelas) [mg/L]	LOEC7d -survival (P. promelas) [mg/L]	removal of FL ([2]; dark biotic conditions (DBR)) [%]	removal of FL ([2]; light abiotic conditions (LAR)) [%]	removal of FL ([2]; light biotic reactor (LBR)) [%]	Average effect (N immobile, 5 daphnids per replicate) (Daphnia magna; concentration 0.5)	Average effect (N immobile, 5 daphnids per replicate) (Daphnia magna; concentration 1.5)	Average effect (N immobile, 5 daphnids per replicate) (Daphnia magna; concentration 5)	Average effect (N immobile, 5 daphnids per replicate) (Daphnia magna; concentration 16)	Average effect (N immobile, 5 daphnids per replicate) (Daphnia magna; concentration 50)	% I (percentage inhibition) (Tetrahymena thermophila; range test, conc. 0.005) [%]	% I (percentage inhibition) (Tetrahymena thermophila; range test, conc. 0.050) [%]	% I (percentage inhibition) (Tetrahymena thermophila; range test, conc. 0.500) [%]	% I (percentage inhibition) (Tetrahymena thermophila; range test, conc. 5.000) [%]	LOEC21d -grazing (D. magna)	further results
CNCC[C@H](Oc1ccc(C(F)(F)F)cc1)c1ccccc1 [(S)-FL]	0.04	19 h and 19.4 h	0.07	80	0.05	0.05	0.10	60.4	74.5	98.4	0.25	1	3.25	5	5	22.617	21.857	26.510	26.130	0.20 mg/L	kbiol ([1]; 10 µg L^−1): 0.04 LgSS ^−1h^−1; t1/2biol ([1]; 10 µg L^−1): 19 h and 18.9 h; k1 ([1]; 10 µg L^−1, pseudo-first order): 0.07 h⁻¹; % I (percentage inhibition) (Tetrahymena thermophila; definitive test, conc. 0.104): -1.720%; % I (percentage inhibition) (Tetrahymena thermophila; definitive test, conc. 0.313): 4.194%; % I (percentage inhibition) (Tetrahymena thermophila; definitive test, conc. 0.535): 0.108%; % I (percentage inhibition) (Tetrahymena thermophila; definitive test, conc. 10.446): 7.204%; % I (percentage inhibition) (Tetrahymena thermophila; definitive test, conc. 20.892): 22.366%; % I (percentage inhibition) (Tetrahymena thermophila; definitive test, conc. 68.945): 73.441%; % I (percentage inhibition) (Tetrahymena thermophila; definitive test, conc. 104.462): 83.118%; % I (percentage inhibition) (Tetrahymena thermophila; range test, conc. 50.000): 57.653%; LOEC21d -immobilization (D. magna): 0.44 mg/L; LOEC21d -reproduction (D. magna): 0.44 mg/L
CNCC[C@@H](Oc1ccc(C(F)(F)F)cc1)c1ccccc1 [(R)-FL, (R)-N-Methyl-3-(4-trifluoromethylphenoxy)-3-phenylpropylamine]	0.01	68 h and 68.0 h	0.02	38	0.17	0.17	0.17	67.9	79.2	96.7	0	0.25	3.25	5	5	-3.105	5.433	-1.164	39.974	none	degradation ([1]; 10 µg L^−1): lack of degradation; also recorded: No degradation; times more toxic than (S)-FL (Tetrahymena thermophila; Tetrahymena thermophila): 30 ×; % I (percentage inhibition) (Tetrahymena thermophila; definitive test, conc. 0.086): -8.032%; % I (percentage inhibition) (Tetrahymena thermophila; definitive test, conc. 24.098): 91.516%; % I (percentage inhibition) (Tetrahymena thermophila; definitive test, conc. 79.522): 90.724%; LOEC21d -immobilization (D. magna): 0.43 mg/L; LOEC21d -reproduction (D. magna): 0.43 mg/L
